The results in this text go back to US20130095520A1, “METHOD FOR DETECTION OF UROTHELIAL CANCER” (NATIONAL UNIVERSITY CORPORATION KOCHI UNIVERSITY, priority 2010, published 2013).

Where a name gives a salt, the structure may show the parent alone.

This assay concerns cancer cells in the urine (urothelial / bladder cancer). As to the kind of experiment: Detection of PPIX fluorescence in cells of urine collected after oral ALA hydrochloride (fluorescence microscopy of urinary sediment). It counts as in vivo, human. To be noted: 1 g ALA hydrochloride oral in 50 ml orange juice; patient suspected of bladder cancer (about 60 kg); urine collected after about 4 hours; FIG. 1. As to the method:
1 g of ALA hydrochloride was dissolved in 50 ml of orange juice, and was given to a patient suspected of having bladder cancer (body weight about 60 kg). Urine was collected after about 4 hours, which was immediately centrifuged (3000 rpm/min., 15 min.) in a light shielded state, and was confirmed by microscopic visualization using sediments. The microscope used was OLYMPUS BX50CCD mounted with camera OLYMPUS DP70. The mirror set was Exciter: XF1076 400AF30 Dichroic:XF2007 475DCLP, Emitter: XF3090 585ALP (OMEGA OPTICAL), all of which being a standard fluorescence microscope system.
The detection method was performed in the same way as Example 1, except that the dosage amount was changed to 500 mg, which is the half amount of Example 1.

Consider `NCC(=O)CCC(=O)O` [ALA hydrochloride, 5-aminolevulinic acid], for which the “PPIX fluorescence in cells separated from the urine” value is on record as “a clear PPIX fluorescence derived from cancer cell was observed”.
